System: Glucokinase known as hexokinase IV (human GK isoform 1, pancreas form and human GK isoform 2, liver form)
Test: Glucokinase enzymatic activity assay (G6PDH-coupled, NADH absorbance at 340 nm)
Assay type: biochemical
Conditions: 5 mM glucose, 1 mM ATP, 37 nM GK, 10 min at room temperature
How it was run: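 His-tagged human GK isoform 1 (pancreas) or 2 (liver), E. coli-expressed and Ni-purified, 37 nM, with 5 mM glucose, 1 mM ATP, 1 mM NAD and G6PDH in 25 mM Hepes/KCl, 2 mM MgCl2, 1 mM DTT. Ran 10 min at room temperature, read as NADH at 340 nm. AC1.5 is the compound concentration giving 1.5-fold activity.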

AC1.5 (the compound concentration at which the enzymatic activity is increased by 1.5 times) [nM]	SMILES
40	O=C(c1ccco1)N1CCN(CC[C@@H]2CSC(c3cc4cc(Cl)cc(NC5CCOCC5)c4[nH]3)=N2)CC1 [Example 121, [4-(2-{(R)-2-[5-chloro-7-(tetrahydro-pyran-4-ylamino)-1H-indol-2-yl]-4,5-dihydro-thiazol-4-yl}-ethyl)-piperazin-1-yl]-furan-2-yl-methanone]
20	Fc1cc(NC2CCCC2)c2[nH]c(C3=N[C@H](CCN4CCOCC4)CS3)cc2c1 [Example 126, cyclopentyl-{5-fluoro-2-[(R)-4-(2-morpholin-4-yl-ethyl)-4,5-dihydro-thiazol-2-yl]-1H-indol-7-yl}-amine]
10	O=C(CO)N1CCN(CC[C@@H]2CSC(c3cc4cc(F)cc(NC5CCCC5)c4[nH]3)=N2)CC1 [Example 131, 1-(4-{2-[(R)-2-(7-cyclopentylamino-5-fluoro-1H-indol-2-yl)-4,5-dihydro-thiazol-4-yl]-ethyl}-piperazin-1-yl)-2-hydroxy-ethanone]
21	O=C(C[C@@H]1CSC(c2cc3cc(Cl)cc(NC4CCCC4)c3[nH]2)=N1)NCCCN1CCOCC1 [Example 75, 2-[(R)-2-(5-chloro-7-cyclopentylamino-1H-indol-2-yl)-4,5-dihydro-thiazol-4-yl]-N-(3-morpholin-4-yl-propyl)-acetamide]
12	COc1cc(NC2CCCC2)c2[nH]c(C3=N[C@H](CCC(=O)O)CS3)cc2c1 [Example 165, 3-[(R)-2-(7-cyclopentylamino-5-methoxy-1H-indol-2-yl)-4,5-dihydro-thiazol-4-yl]-propionic acid]
23	CC(=O)N1CCN(C(=O)C[C@@H]2CSC(c3cc4cc(F)cc(NC5CCCC5)c4[nH]3)=N2)CC1 [Example 86, 1-(4-acetyl-piperazin-1-yl)-2-[(R)-2-(7-cyclopentylamino-5-fluoro-1H-indol-2-yl)-4,5-dihydro-thiazol-4-yl]-ethanone]
31	CS(=O)(=O)Cc1cc(NC2CCCC2)c2[nH]c(C3=N[C@H](CCN4CCOCC4)CS3)cc2c1 [Example 71, cyclopentyl-{5-methanesulfonylmethyl-2-[(R)-4-(2-morpholin-4-yl-ethyl)-4,5-dihydro-thiazol-2-yl]-1H-indol-7-yl}-amine]
96	OCC[C@@H]1CSC(c2cc3cccc(NC4CCOCC4)c3[nH]2)=N1 [Example 46, 2-{(R)-2-[7-(tetrahydro-pyran-4-ylamino)-1H-indol-2-yl]-4,5-dihydro-thiazol-4-yl}-ethanol]
13	Clc1cc(NC2CCCC2)c2[nH]c(C3=N[C@H](CCN4CCCCC4)CS3)cc2c1 [Example 104, {5-chloro-2-[(R)-4-(2-piperidin-1-yl-ethyl)-4,5-dihydro-thiazol-2-yl]-1H-indol-7-yl}-cyclopentyl-amine]
19	CN(C)C1CCN(C(=O)C[C@@H]2CSC(c3cc4cc(Cl)cc(NC5CCCC5)c4[nH]3)=N2)C1 (stereo partly drawn) [Example 79, 2-[(R)-2-(5-chloro-7-cyclopentylamino-1H-indol-2-yl)-4,5-dihydro-thiazol-4-yl]-1-(3-dimethylamino-pyrrolidin-1-yl)-ethanone]
63	O=C(O)[C@@H]1CCCN1CC[C@@H]1CSC(c2cc3cc(Cl)cc(NC4CCCC4)c3[nH]2)=N1 [Example 107, (S)-1-{2-[(R)-2-(5-chloro-7-cyclopentylamino-1H-indol-2-yl)-4,5-dihydro-thiazol-4-yl]-ethyl}-pyrrolidine-2-carboxylic acid]
12	O=C(O)CC[C@@H]1CSC(c2cc3cc(Cl)cc(NC4CCCC4)c3[nH]2)=N1 [Example 149, 3-[(R)-2-(5-chloro-7-cyclopentylamino-1H-indol-2-yl)-4,5-dihydro-thiazol-4-yl]-propionic acid]
22	Clc1cc(NC2CCCC2)c2[nH]c(C3=N[C@H](CCCN4CCOCC4)CS3)cc2c1 [Example 156, {5-chloro-2-[(R)-4-(3-morpholin-4-yl-propyl)-4,5-dihydro-thiazol-2-yl]-1H-indol-7-yl}-cyclopentyl-amine]
11	OCC[C@@H]1CSC(c2cc3cc(Br)cc(NC4CCCC4)c3[nH]2)=N1 [Example 34, 2-[(R)-2-(5-bromo-7-cyclopentylamino-1H-indol-2-yl)-4,5-dihydro-1,3-thiazol-4-yl]-ethanol]
14	Clc1cc(NC2CCCC2)c2[nH]c(C3=N[C@H](CCn4cccn4)CS3)cc2c1 [Example 106, {5-chloro-2-[(R)-4-(2-pyrazol-1-yl-ethyl)-4,5-dihydro-thiazol-2-yl]-1H-indol-7-yl}-cyclopentyl-amine]
400	c1cc(NC2CCCC2)c2[nH]c(C3=N[C@H](CN4CCCC4)CS3)cc2c1 [Example 15, cyclopentyl-[2-((R)-4-pyrrolidin-1-ylmethyl-4,5-dihydro-thiazol-2-yl)-1H-indol-7-yl]-amine]
10	OC1CCN(CC[C@@H]2CSC(c3cc4cc(Cl)cc(NC5CCCC5)c4[nH]3)=N2)CC1 [Example 101, 1-{2-[(R)-2-(5-chloro-7-cyclopentylamino-1H-indol-2-yl)-4,5-dihydro-thiazol-4-yl]-ethyl}-piperidin-4-ol]
239	O=C(C[C@@H]1CSC(c2cc3cccc(NC4CCOCC4)c3[nH]2)=N1)N1CCOCC1 [Example 93, 1-morpholin-4-yl-2-{(R)-2-[7-(tetrahydro-pyran-4-ylamino)-1H-indol-2-yl]-4,5-dihydro-thiazol-4-yl}-ethanone]
7	OC[C@@H]1CSC(c2cc3cc(F)cc(NC4CCCC4)c3[nH]2)=N1 [Example 5, [(R)-2-(7-cyclopentylamino-5-fluoro-1H-indol-2-yl)-4,5-dihydro-thiazol-4-yl]-methanol]
52	COc1cc(NC2CCOCC2)c2[nH]c(C3=N[C@H](CCN4CCN(C(=O)CO)CC4)CS3)cc2c1 [Example 147, 2-hydroxy-1-[4-(2-{(R)-2-[5-methoxy-7-(tetrahydro-pyran-4-ylamino)-1H-indol-2-yl]-4,5-dihydro-thiazol-4-yl}-ethyl)-piperazin-1-yl]ethanone]
29	O=C(O)C[C@@H]1CSC(c2cc3cc(Oc4ccccc4)cc(NC4CCOCC4)c3[nH]2)=N1 [Example 55, {(R)-2-[5-phenoxy-7-(tetrahydro-pyran-4-ylamino)-1H-indol-2-yl]-4,5-dihydro-thiazol-4-yl}-acetic acid]
85	CN(C)CC[C@@H]1CSC(c2cc3cccc(NC4CCCC4)c3[nH]2)=N1 [Example 142, cyclopentyl-{2-[(R)-4-(2-dimethylamino-ethyl)-4,5-dihydro-thiazol-2-yl]-1H-indol-7-yl}-amine]
12	OC[C@@H]1CSC(c2cc3cc(Oc4cccnc4)cc(NC4CCCC4)c3[nH]2)=N1 [Example 13, {(R)-2-[7-cyclopentylamino-5-(pyridin-3-yloxy)-1H-indol-2-yl]-4,5-dihydro-thiazol-4-yl}-methanol]
21	CN(C)CC[C@@H]1CSC(c2cc3cccc(Oc4ccccc4)c3[nH]2)=N1 [Example 178, dimethyl-{2-[(R)-2-(7-phenoxy-1H-indol-2-yl)-4,5-dihydro-thiazol-4-yl]ethyl}-amine]
16	OC[C@@H]1CSC(c2cc3cc(Cn4cccn4)cc(NC4CCCC4)c3[nH]2)=N1 [Example 21, [(R)-2-[7-cyclopentylamino-5-pyrazol-1-ylmethyl-1H-indol-2-yl]-4,5-dihydro-thiazol-4-yl}-methanol]
10	CNC(=O)C[C@@H]1CSC(c2cc3cc(OC)cc(NC4CCCC4)c3[nH]2)=N1 [Example 87, 2-[(R)-2-(7-cyclopentylamino-5-methoxy-1H-indol-2-yl)-4,5-dihydro-thiazol-4-yl]-N-methyl-acetamide]
14	OCCC[C@@H]1CSC(c2cc3cc(Cl)cc(NC4CCOCC4)c3[nH]2)=N1 [Example 152, 3-{(R)-2-[5-chloro-7-(tetrahydro-pyran-4-ylamino)-1H-indol-2-yl]-4,5-dihydro-thiazol-4-yl}-propan-1-ol]
17	OCC[C@@H]1CSC(c2cc3cc(F)cc(NC4CCOCC4)c3[nH]2)=N1 [Example 41, 2-{(R)-2-[5-fluoro-7-(tetrahydro-pyran-4-ylamino)-1H-indol-2-yl]-4,5-dihydro-thiazol-4-yl}-ethanol]
15	CN(C)CC[C@@H]1CSC(c2cc3cc(Cl)cc(NC4CCCC4)c3[nH]2)=N1 [Example 94, {5-chloro-2-[(R)-4-(2-dimethylamino-ethyl)-4,5-dihydro-thiazol-2-yl]-1H-indol-7-yl}-cyclopentyl-amine]
30	Cc1ncn(CC[C@@H]2CSC(c3cc4cc(Cl)cc(NC5CCCC5)c4[nH]3)=N2)c1C(=O)O [Example 110, 3-{2-[(R)-2-(5-chloro-7-cyclopentylamino-1H-indol-2-yl)-4,5-dihydro-thiazol-4-yl]-ethyl}-5-methyl-3H-imidazole-4-carboxylic acid]
